Structures can show the parent of a compound that is named as a salt.
Experiments:
mexB (EC) strain = test: Efflux ability inhibition effect on drug efflux pump MexB (Test Examples 1 and 3): proliferation (OD595) of mexB (EC) strain with EM or LVFX at 1/4 MIC, EC75; assay type: cell-based, Escherichia coli; conditions: for EC75, mexB (EC) strain, EM: combined with EM at 1/4 MIC; for EC75, mexB (EC) strain, LVFX: combined with LVFX at 1/4 MIC
Method: The efflux ability inhibition effect of the test compound on the drug efflux pump was evaluated using the bacterial proliferative ability in the presence of EM or LVFX as an index.
EM is a macrolide antibacterial agent and is a drug that is discharged outside the bacteria by MexB and MexY LVFX is a quinolone antibacterial agent and is a drug that is discharged outside the bacteria by MexB and MexY In a case where the test compound has an efflux ability inhibitory ability against the drug efflux pump, the proliferation of bacteria is suppressed by the combined use of EM or LVFX and the test compound, as compared with the case where EM or LVFX is used alone.
A mutant strain (hereinafter, referred to as an “mexB (EC) strain”) obtained by transferring the genes of the main multidrug efflux system MexAB-OprM of Pseudomonas aeruginosa described in Nature, 2013, Vol. 500, pp. 102 to 106 as a plasmid into Escherichia coli strains in which the acrB and tolC genes of the multidrug efflux system AcrAB-TolC were deleted as described in Journal of Infection and Chemotherapy 2008, Vol. 14, pp. 23 to 29, and a gene transfer strain (hereinafter, referred to as an “mexY (EC) strain”) of another main multidrug efflux system MexXY-OprM of Pseudomonas aeruginosa were used for the evaluation of test compounds.
In the mexB (EC) strain, an expression level of MexB of the drug efflux pump is accelerated, and in the mexY (EC) strain, an expression level of MexY of the drug efflux pump is accelerated.
For culturing each Escherichia coli strain, a 96-well plate (amount of culture medium per well: 100 μL) was used and Luria-Bertani broth (LB) culture medium was used. The inoculation amount of the bacteria was set to 10^4 to 5 CFU/well.
The mexB (EC) strain and the mexY (EC) strain were cultured for 16 to 20 hours in a culture medium to which EM or LVFX and test compounds at various concentrations (0 to 800 μM) were added, and the proliferation of the bacterial strains was evaluated by optical turbidity at 595 nm (OD595). The concentration of the antibacterial agents (EM and LVFX) in the culture medium were each set to ¼ of the minimum inhibitory concentration (MIC) (hereinafter, referred to as ¼ MIC) of the single antibacterial agent.
The proliferation of bacteria in a case where the antibacterial agent was added at the concentration of ¼ MIC in a case where the test compound was not added was measured, and compared with the proliferation of bacteria in a case where the test compound was contained, and the lowest concentration of the test compound at which the proliferation was inhibited by 75% or more was defined as the drug efflux pump inhibitory ability of the test compound as 75% inhibitory effect concentration (EC75).
The drug efflux pump inhibitory ability of each test compound in a case of being used in combination with the antibacterial agent against the mexB (EC) strain and the mexY (EC) strain was evaluated as follows according to the value of EC75. • S: EC75≤[…] • A: 12.5 μM<EC75≤25 μM • B: 25 μM<EC75≤100 μM • C: […]
In the same manner as in Test Example 1, the efflux ability inhibition effect of the test compound on the drug efflux pump was evaluated using the bacterial proliferation ability in the presence of EM or LVFX as an index.

mexB (PA) strain = test: Combinational effect with antibacterial agent against Pseudomonas aeruginosa (Test Examples 2 and 4): mexB (PA) strain with LVFX, TC or AZT at 1/4 MIC, EC99; assay type: cell-based; conditions: mexB (PA) strain, Test Example 4; for EC99, combinational effect with AZT, mexB (PA): combined with AZT at 1/4 MIC; for EC99, combinational effect with LVFX, mexB (PA): combined with LVFX at 1/4 MIC; for EC99, combinational effect with TC, mexB (PA): combined with TC at 1/4 MIC
Method in brief: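 EC99 denotes the minimum test-compound concentration (range 0–800 μM) that suppresses ≥99% of growth, measured by OD595, when combined with ¼ MIC levofloxacin (LVFX), tetracycline or aztreonam. The efflux-pump mutant mexB (PA), expressing mainly MexAB-OprM, was inoculated at 10^4–5 CFU/well in CAMHB for 16–20 h.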

S-3769 strain = test: Combinational effect with antibacterial agent against Pseudomonas aeruginosa (Test Examples 2 and 4): S-3769 strain with AMK or GM at 1/4 MIC, EC99; assay type: cell-based; conditions: S-3769 strain, Test Example 4; for EC99, combinational effect with AMK, S-3769 strain: combined with AMK at 1/4 MIC; for EC99, combinational effect with GM, S-3769 strain: combined with GM at 1/4 MIC
Method in brief: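 EC99, the lowest test-compound concentration inhibiting growth by ≥99% (OD595), was measured with aminoglycoside AMK or GM held at ¼ MIC. Strain S-3769, a MexY-overexpressing clinical isolate, was cultured in CAMHB at 10^4 to 5 CFU/well for 16–20 h; compound range 0–800 μM.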

[1] = Table 53, Test Example 3, same manner as Test Example 1
[2] = Table 51, Test Example 1, 16 to 20 hours culture, OD595

SMILES | EC99, combinational effect with AZT, mexB (PA) (mexB (PA) strain) | EC99, combinational effect with LVFX, mexB (PA) (mexB (PA) strain) | EC99, combinational effect with TC, mexB (PA) (mexB (PA) strain) | EC99, combinational effect with AMK, S-3769 strain (S-3769 strain) | EC99, combinational effect with GM, S-3769 strain (S-3769 strain) | EC75, mexB (EC) strain, EM (mexB (EC) strain; [2]) | EC75, mexB (EC) strain, LVFX (mexB (EC) strain; [2]) | other results
CCOc1cccc(F)c1CN1CCN(C(=O)[C@H](N)C2CCN(CCc3cc(-c4ccccc4)ccc3Cl)CC2)CC1 [Example 566, Hydrobromide of (R)-2-amino-2-(1-(2-(4-chloro-[1,1-biphenyl]-3-yl)ethyl)piperidin-4-yl)-1-(4-(2-ethoxy-6-fluorobenzyl)piperazin-1-yl)ethan-1-one] | B (25 μM<EC99≤100 μM) | B (25 μM<EC99≤100 μM) | B (25 μM<EC99≤100 μM) | S (EC99≤12.5 μM) | S (EC99≤12.5 μM) |  |  | EC75, mexB (EC) strain, EM (mexB (EC) strain; [1]): A (12.5 μM<EC75≤25 μM)
Cl.N[C@@H](C(=O)N1CCN(Cc2c(O)cccc2Cl)CC1)C1CCN(CCc2cc(Cl)ccc2-c2ccccc2)CC1 [Example 574, Hydrochloride of (R)-2-amino-1-(4-(2-chloro-6-hydroxybenzyl)piperazin-1-yl)-2-(1-(2-(4-chloro-[1,1-biphenyl]-2-yl)ethyl)piperidin-4-yl) ethan-1-one] | A (12.5 μM<EC99≤25 μM) | A (12.5 μM<EC99≤25 μM) | A (12.5 μM<EC99≤25 μM) | A (12.5 μM<EC99≤25 μM) | B (25 μM<EC99≤100 μM) |  |  | EC75, mexB (EC) strain, LVFX (mexB (EC) strain; [1]): S (EC75≤12.5 M)
CCOc1cccnc1CN1CCN(C(=O)[C@H](N)C2CCN(CCc3cc(Cl)ccc3-c3ccccc3)CC2)CC1 [Example 508, Hydrobromide of (R)-2-amino-2-(1-(2-(4-chloro-[1,1-biphenyl]-2-yl)ethyl)piperidin-4-yl)-1-(4-((3-ethoxypyridin-2-yl)methyl)piperazin-1-yl)ethan-1-one] | B (25 μM<EC99≤100 μM) | C (100 μM<EC99) | B (25 μM<EC99≤100 μM) | S (EC99≤12.5 μM) | A (12.5 μM<EC99≤25 μM) |  |  | EC75, mexB (EC) strain, EM (mexB (EC) strain; [1]): A (12.5 μM<EC75≤25 μM)
CSc1ccccc1CN1CCN(C(=O)[C@H](N)C2CCN(CCc3cc(Cl)ccc3-c3cccc(O)c3Cl)CC2)CC1.Cl [Example 613, Hydrochloride of (R)-2-amino-2-(1-(2-(2′,4-dichloro-3′-hydroxy-[1,1-biphenyl]-2-yl)ethyl)piperidin-4-yl)-1-(4-(2-(methylthio)benzyl)piperazin-1-yl) ethan-1-one] | S (EC99≤12.5 μM) | S (EC99≤12.5 μM) | S (EC99≤12.5 μM) | S (EC99≤12.5 μM) | A (12.5 μM<EC99≤25 μM) |  |  | EC75, mexB (EC) strain, LVFX (mexB (EC) strain; [1]): S (EC75≤12.5 M)
O=C(CN1CCN(CCc2ccccc2)CC1)N1CCN(Cc2sccc2Cl)CC1 [Example 251, Hydrochloride of 1-(4-((3-chlorothiophen-2-yl)methyl)piperazin-1-yl)-2-(4-phenethylpiperazin-1-yl)ethan-1-one] |  |  |  |  |  | A (12.5 μM<EC75≤25 μM) | B (25 μM<EC75≤100 μM) | 
O=C(CN1CCN(CCc2ccccc2)CC1)N1CCN(Cc2ccccc2[N+](=O)[O-])CC1 [Example 235, Hydrochloride of 1-(4-(2-nitrobenzyl)piperazin-1-yl)-2-(4-phenethylpiperazin-1-yl) ethan-1-one] |  |  |  |  |  | B (25 μM<EC75≤100 μM) | B (25 μM<EC75≤100 μM) | 
CCOc1cccc(F)c1CN1CCN(C(=O)[C@H](N)C2CCN(CCc3cc(Cl)ccc3-c3cccc(F)c3)CC2)CC1 [Example 60, Hydrobromide of (R)-2-amino-2-(1-(2-(4-chloro-3′-fluoro-[1,1′-biphenyl]-2-yl)ethyl)piperidin-4-yl)-1-(4-(2-ethoxy-6-fluorobenzyl)piperazin-1-yl)ethan-1-one] |  |  |  |  |  | A (12.5 μM<EC75≤25 μM) |  | 
COc1ccccc1CN1CCN(C(=O)CN2CCN(CCc3cncs3)CC2)CC1 [Example 294, 1-(4-(2-Methoxybenzyl)piperazin-1-yl)-2-(4-(2-(thiazol-5-yl)ethyl)piperazin-1-yl)ethan-1-one and hydrochloride thereof] |  |  |  |  |  |  | A (12.5 μM<EC75≤25 μM) | 
N[C@@H](C(=O)N1CCN(Cc2cccc3cc[nH]c23)CC1)C1CCN(CCc2cc(Cl)ccc2-c2ccccc2)CC1 [Example 40, Hydrobromide of (R)-1-(4-((1H-indol-7-yl)methyl)piperazin-1-yl)-2-amino-2-(1-(2-(4-chloro-[1,1′-biphenyl]-2-yl)ethyl)piperidin-4-yl) ethan-1-one] |  |  |  |  |  |  | B (25 μM<EC75≤100 μM) | 
CCOc1cccc(F)c1CN1CCN(C(=O)[C@H](N)C2CCN(CCc3ccccc3C(=O)OC)CC2)CC1 [Example 129, Hydrochloride of Methyl (R)-2-(2-(4-(1-amino-2-(4-(2-ethoxy-6-fluorobenzyl)piperazin-1-yl)-2-oxoethyl)piperidin-1-yl)ethyl)benzoate] |  |  |  |  |  | A (12.5 μM<EC75≤25 μM) |  | 
CN(C)c1ccccc1CN1CCN(C(=O)CN2CCN(CCc3ccccc3)CC2)CC1 [Example 224, Hydrochloride of 1-(4-(2-(dimethylamino)benzyl)piperazin-1-yl)-2-(4-phenethylpiperazin-1-yl)ethan-1-one] |  |  |  |  |  |  | A (12.5 μM<EC75≤25 μM) | 
CCOc1cccc(F)c1CN1CCN(C(=O)[C@H](N)C2CCN(CCc3ccccc3N)CC2)CC1 [Example 146, Hydrobromide of (R)-2-amino-2-(1-(2-aminophenethyl)piperidin-4-yl)-1-(4-(2-ethoxy-6-fluorobenzyl)piperazin-1-yl) ethan-1-one] |  |  |  |  |  | A (12.5 μM<EC75≤25 μM) |  | 
CCOc1cccc(F)c1CN1CCN(C(=O)[C@H](N)C2CCN(CCc3cccc(O)c3)CC2)CC1 [Example 130, Hydrochloride of (R)-2-amino-1-(4-(2-ethoxy-6-fluorobenzyl)piperazin-1-yl)-2-(1-(3-hydrophenethyl)piperidin-4-yl) ethan-1-one] |  |  |  |  |  | B (25 μM<EC75≤100 μM) | A (12.5 μM<EC75≤25 μM) | 

Source: patent US20250326744A1, “PIPERAZINE DERIVATIVE OR SALT THEREOF, AND PHARMACEUTICAL COMPOSITION” (priority 2022, published 2025)
